What all share (assay type): cell-based
The test system of one test is Coll A. The test is described as follows: Coll A repression. The note with it: Table 5; for Emax: read-out: Repression Coll A % max repression; for EC50: read-out: Repression Coll A pot (EC50).
The target in a further test is T1, MR (Homo sapiens, UniProt P08235).
T1 sequence (P08235 1-984): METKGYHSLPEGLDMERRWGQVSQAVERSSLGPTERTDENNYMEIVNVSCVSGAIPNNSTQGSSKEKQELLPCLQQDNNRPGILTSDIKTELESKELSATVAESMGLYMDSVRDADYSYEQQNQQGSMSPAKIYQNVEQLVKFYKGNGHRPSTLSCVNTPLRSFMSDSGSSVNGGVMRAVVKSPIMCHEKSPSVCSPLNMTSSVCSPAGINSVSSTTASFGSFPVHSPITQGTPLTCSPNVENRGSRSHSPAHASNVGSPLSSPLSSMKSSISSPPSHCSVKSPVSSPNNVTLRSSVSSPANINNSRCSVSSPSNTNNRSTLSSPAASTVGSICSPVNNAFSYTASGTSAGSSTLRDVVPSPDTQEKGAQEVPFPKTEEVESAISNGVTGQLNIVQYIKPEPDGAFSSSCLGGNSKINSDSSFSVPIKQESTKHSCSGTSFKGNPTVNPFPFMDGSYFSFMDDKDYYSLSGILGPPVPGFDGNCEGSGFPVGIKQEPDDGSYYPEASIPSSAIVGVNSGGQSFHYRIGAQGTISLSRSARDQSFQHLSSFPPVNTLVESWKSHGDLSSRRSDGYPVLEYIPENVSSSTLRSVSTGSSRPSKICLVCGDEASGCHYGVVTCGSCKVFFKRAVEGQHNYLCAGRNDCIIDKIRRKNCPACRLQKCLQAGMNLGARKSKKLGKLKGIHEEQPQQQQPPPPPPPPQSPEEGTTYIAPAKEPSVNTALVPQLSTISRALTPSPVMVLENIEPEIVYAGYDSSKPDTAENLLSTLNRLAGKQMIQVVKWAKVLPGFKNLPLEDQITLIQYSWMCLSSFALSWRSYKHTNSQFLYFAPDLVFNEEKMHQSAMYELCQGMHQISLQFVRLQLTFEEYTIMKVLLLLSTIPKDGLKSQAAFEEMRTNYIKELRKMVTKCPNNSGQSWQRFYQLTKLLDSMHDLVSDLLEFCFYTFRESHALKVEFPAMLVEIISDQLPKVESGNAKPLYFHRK
The test is described as follows: MR activation (max fold activation). The conditions noted are these: Table 4.

The target in the next test is T2, GR (Homo sapiens, UniProt P04150).
T2 construct: expressed in transfected cells; host or cells: CV-1 cells, transient transfection (plasmid a gift of Keith Yamamoto, UCSF)
T2 sequence (P04150 1-777): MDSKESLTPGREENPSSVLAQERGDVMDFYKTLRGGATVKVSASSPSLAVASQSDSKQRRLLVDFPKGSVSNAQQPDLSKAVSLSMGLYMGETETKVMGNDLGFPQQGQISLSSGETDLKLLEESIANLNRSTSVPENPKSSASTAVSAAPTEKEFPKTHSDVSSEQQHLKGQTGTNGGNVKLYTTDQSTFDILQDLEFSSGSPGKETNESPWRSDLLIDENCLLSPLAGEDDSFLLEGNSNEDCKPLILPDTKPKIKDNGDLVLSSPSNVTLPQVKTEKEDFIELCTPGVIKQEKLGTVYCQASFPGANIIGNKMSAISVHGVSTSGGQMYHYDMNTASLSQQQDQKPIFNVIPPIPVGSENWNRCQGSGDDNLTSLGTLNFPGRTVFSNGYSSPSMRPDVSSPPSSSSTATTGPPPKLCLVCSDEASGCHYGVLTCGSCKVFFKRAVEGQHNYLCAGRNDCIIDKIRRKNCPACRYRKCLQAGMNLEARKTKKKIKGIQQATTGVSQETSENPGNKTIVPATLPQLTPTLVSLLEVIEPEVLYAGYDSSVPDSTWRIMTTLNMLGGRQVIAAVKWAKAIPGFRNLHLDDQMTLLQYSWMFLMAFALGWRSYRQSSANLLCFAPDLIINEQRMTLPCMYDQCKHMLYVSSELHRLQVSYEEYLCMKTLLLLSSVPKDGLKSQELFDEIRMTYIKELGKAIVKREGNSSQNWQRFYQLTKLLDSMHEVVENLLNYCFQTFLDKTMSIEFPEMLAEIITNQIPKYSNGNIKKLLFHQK
The test is described as follows: GRE (TAT3-Luc) activation luciferase assay in CV-1 cells transfected with GR. As to the method:
Cells were plated into tissue culture treated, 96 well flat bottom plates (25,000 cells/well), and incubated for 12 h at 37° C. Cells were then transfected using the Lipofectamine PLUS transfection reagent (Gibco BRL). DNA-lipid complexes of 5 ng GR, 50 ng TAT3-Luc, 7.5 ng β-galactosidase, 1 μL-well PLUS reagent and 0.67 μL-well lipofectamine in 50 μL/well serum free media were added to cells and incubated for 4 h at 37° C. Complexes were removed and hormones diluted in 5% charcoal-stripped FBS were added to the cells, which were then incubated for 24 hours at 37° C. Media was removed and the cells were washed with 100 μL Ca^+2, Mg^+2 free phosphate buffered saline (PBS). Lysis was achieved by adding 50 μL of Passive Lysis Buffer (Promega Corp, Madison, Wis.) and shaking the plate for 15 min. 15 μL of this lysate was then used to assay β-galactosidase activity (β-galactosidase enzyme assay system, Promega Corp., recommended procedures followed). The Luciferase Assay System (Promega Corp.) was used to assay luciferase activity. 100 μL of luciferase assay reagent was added rapidly to the plate and luminescence was measured for 10 ms/well on an Analyst AD Detection System (LJL Biosystems, Sunnyvale, Calif.).

[1] abbreviates: Table 4, read-out: GR pot (EC50).

Structures are written as SMILES. “And” between values parts separate entries of the source, which are not always exact repeats. Equal entries are not always repeated. Where two headings read alike, the source gives them in different places.

A word on the EC50: it is the concentration needed to bring the measured effect to its halfway point. On to `Cc1cc(O)cc(C)c1C(O)C1CCCC2=Cc3c(cnn3-c3ccc(F)cc3)CC21C` (stereo not shown) [Compound 227, 4-{[1-(4-Fluoro-phenyl)-4a-methyl-4,4a,5,6,7,8-hexahydro-1H-benzo[f]indazol-5-yl]-hydroxy-methyl}-3,5-dimethyl-phenol], for which, in the test with Coll A, the Emax was 75%. Further, the EC50 in the test with Coll A was found to be 6.9 nM; on GR (Table 1, read-out: GR pot(EC50)), 125 nM; on GR (setting [1]), 130 ± 43 nM. In addition, the “MR max fold activation” value at MR was 3.2 ± 0.9. In addition, the “GRE activation max fold activation” value at GR (Table 4) is 95 ± 23.

`CC12Cc3cnn(-c4ccc(F)cc4)c3C=C1CCCC2C(O)c1cccc2[nH]ccc12` (stereo not shown) [Compound 237, [1-(4-Fluoro-phenyl)-4a-methyl-4,4a,5,6,7,8-hexahydro-1H-benzo[f]indazol-5-yl]-(1H-indol-4-yl)-methanol]: in the test with Coll A, the Emax amounted to 75% and the EC50 turned out to be 8.1 nM. On MR, the “MR max fold activation” value was 5.0 ± 1.5. In addition, at GR (Table 4), the “GRE activation max fold activation” value was determined as 92 ± 18. Also, the EC50 at GR (setting [1]) was determined as 149 ± 91 nM.

Regarding `CC12Cc3cnn(-c4ccc(F)cc4)c3C=C1CCCC2C(O)c1ccsc1` (stereo not shown) [Compound 238, [1-(4-Fluoro-phenyl)-4a-methyl-4,4a-5,6,7,8-hexahydro-1H-benzo[f]indazol-5-yl]-thiophen-3-yl-methanol], in the test with Coll A, the Emax was 68% and the EC50 is 27 nM. In addition, the “MR max fold activation” value at MR is listed as 6.2 ± 0.9. Besides, at GR (Table 4), the “GRE activation max fold activation” value is 86 ± 4 and 112 ± 75. Moreover, the EC50 on GR (setting [1]) is 251 nM and 230 nM.

The values above are taken from patent US7947726B2, “Non-steroidal ligands for the glucocorticoid receptor, and compositions thereof” (The Regents of the University of California, priority 2002, dated 2011).
